In patent publication US4281121A, “1,3,4-Thiadiazole-2-carboxylic acid derivatives, process for making the same and fungicidal and nematocidal compositions containing same” (Schering Aktiengesellschaft, priority 1978, dated 1981):

System: Pythium ultimum
Assay: Threshold concentration test for use of the compounds against Pythium ultimum (infested soil, garden peas)
Type: in vivo
Set-up: key to root evaluation (1-4): 4: white roots without fungous necrosis; 3: white roots, minor fungous necrosis; 2: brown roots, already more pronounced fungous necrosis; 1: heavy fungous necrosis, roots rotted
Settings: 20 mg/l soil; 3 weeks
How it was run: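 Pulverulent agents at 20% concentration mixed evenly into soil heavily infested with Pythium ultimum, then garden peas ('Wunder von Kelvedon', 20 per dish) sown at once. After three weeks at 20–24 °C in a hothouse, sound peas counted and roots scored on a 1–4 scale.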

| Compound | root evaluation (1-4) |
| --- | --- |
| CCCNC(=O)c1nnc(S(C)(=O)=O)s1 [5-methylsulfonyl-1,3,4-thiadiazole-2-carboxylic acid-propylamide] | 4 |
| O=C1C2CC=CCC2C(=O)N1SC(Cl)(Cl)Cl (centres unmarked) [N-trichloromethylmercapto-tetrahydro-phthalimide, reference compound] | 1 |

Same assay, conditions: 20 mg/l soil; 20 grains per dish; 3 weeks at 20-24° C.

| Compound | number of sound peas |
| --- | --- |
| CCCNC(=O)c1nnc(S(C)(=O)=O)s1 [5-methylsulfonyl-1,3,4-thiadiazole-2-carboxylic acid-propylamide] | 15 |
| O=C1C2CC=CCC2C(=O)N1SC(Cl)(Cl)Cl (centres unmarked) [N-trichloromethylmercapto-tetrahydro-phthalimide, reference compound] | 1 |

Same assay, conditions: 40 mg/l soil; 3 weeks

| Compound | root evaluation (1-4) |
| --- | --- |
| CCCNC(=O)c1nnc(S(C)(=O)=O)s1 [5-methylsulfonyl-1,3,4-thiadiazole-2-carboxylic acid-propylamide] | 4 |
| O=C1C2CC=CCC2C(=O)N1SC(Cl)(Cl)Cl (centres unmarked) [N-trichloromethylmercapto-tetrahydro-phthalimide, reference compound] | 1 |

Same assay, conditions: 40 mg/l soil; 20 grains per dish; 3 weeks at 20-24° C.

| Compound | number of sound peas |
| --- | --- |
| CCCNC(=O)c1nnc(S(C)(=O)=O)s1 [5-methylsulfonyl-1,3,4-thiadiazole-2-carboxylic acid-propylamide] | 15 |
| O=C1C2CC=CCC2C(=O)N1SC(Cl)(Cl)Cl (centres unmarked) [N-trichloromethylmercapto-tetrahydro-phthalimide, reference compound] | 2 |

Same assay, conditions: 80 mg/l soil; 3 weeks

| Compound | root evaluation (1-4) |
| --- | --- |
| CCCNC(=O)c1nnc(S(C)(=O)=O)s1 [5-methylsulfonyl-1,3,4-thiadiazole-2-carboxylic acid-propylamide] | 4 |
| O=C1C2CC=CCC2C(=O)N1SC(Cl)(Cl)Cl (centres unmarked) [N-trichloromethylmercapto-tetrahydro-phthalimide, reference compound] | 2 |

Same assay, conditions: 80 mg/l soil; 20 grains per dish; 3 weeks at 20-24° C.

| Compound | number of sound peas |
| --- | --- |
| CCCNC(=O)c1nnc(S(C)(=O)=O)s1 [5-methylsulfonyl-1,3,4-thiadiazole-2-carboxylic acid-propylamide] | 15 |
| O=C1C2CC=CCC2C(=O)N1SC(Cl)(Cl)Cl (centres unmarked) [N-trichloromethylmercapto-tetrahydro-phthalimide, reference compound] | 8 |

System: Tilletia caries
Assay: Seed treatment in open field tests regarding infestation by Tilletia caries (oats)
Type: in vivo
Settings: winter oats; 100 g active agent/100 kg; about 9 months

| Compound | % activity |
| --- | --- |
| CS(=O)(=O)c1nnc(C(=O)NCC2CCCCC2)s1 [5-methylsulfonyl-1,3,4-thiadiazole-2-carboxylic acid cyclohexylmethylamide] | 100% |

System: Tilletia caries
Assay: Treatment of oat seeds infested with Tilletia caries (spore germination)
Type: in vivo
Settings: 5 g active agent per 100 kg

| Compound | % activity |
| --- | --- |
| CS(=O)(=O)c1nnc(C(=O)NCC2CCCCC2)s1 [5-methylsulfonyl-1,3,4-thiadiazole-2-carboxylic acid cyclohexylmethylamide] | 86% |

Same assay, conditions: 10 g active agent per 100 kg

| Compound | % activity |
| --- | --- |
| CS(=O)(=O)c1nnc(C(=O)NCC2CCCCC2)s1 [5-methylsulfonyl-1,3,4-thiadiazole-2-carboxylic acid cyclohexylmethylamide] | 99% |
| CCCNC(=O)c1nnc(S(C)(=O)=O)s1 [5-methylsulfonyl-1,3,4-thiadiazole-2-carboxylic acid-propylamide] | 99.5% |

Same assay, conditions: 20 g active agent per 100 kg

| Compound | % activity |
| --- | --- |
| CS(=O)(=O)c1nnc(C(=O)NCC2CCCCC2)s1 [5-methylsulfonyl-1,3,4-thiadiazole-2-carboxylic acid cyclohexylmethylamide] | 100% |
| CCCNC(=O)c1nnc(S(C)(=O)=O)s1 [5-methylsulfonyl-1,3,4-thiadiazole-2-carboxylic acid-propylamide] | 100% |

Same assay, conditions: 50 g active agent per 100 kg

| Compound | % activity |
| --- | --- |
| CCCNC(=O)c1nnc(S(C)(=O)=O)s1 [5-methylsulfonyl-1,3,4-thiadiazole-2-carboxylic acid-propylamide] | 100% |

System: Alternaria solani
Assay: Inhibition of fungus in a nutrient solution: Alternaria solani;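 further: 0 means no fungus growth and higher grades mean more surface covered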
Type: cell-based
Settings: 0.002%, 6 days at 21-23° C.

| Compound | fungus development on the surface of the nutrient solution (0-5) |
| --- | --- |
| O=C1C2CC=CCC2C(=O)N1SC(Cl)(Cl)Cl (centres unmarked) [N-trichloromethylmercapto-tetrahydro-phthalimide, reference compound] | 4 (30 to 60% of the surface covered by the fungus turf) |

Same assay, conditions: 0.004%, 6 days at 21-23° C.

| Compound | fungus development on the surface of the nutrient solution (0-5) |
| --- | --- |
| O=C1C2CC=CCC2C(=O)N1SC(Cl)(Cl)Cl (centres unmarked) [N-trichloromethylmercapto-tetrahydro-phthalimide, reference compound] | 4 (30 to 60% of the surface covered by the fungus turf) |

System: Helminthosporium gramineum
Assay: Seed treatment in open field tests for infestation by Helminthosporium gramineum (barley)
Type: in vivo
Settings: summer barley; 50 g active agent/100 kg barley; about 3 months
Procedure: Seed treatment in open field tests for infestation by Helminthosporium gramineum
The active agents were used in the form of pulverulent compositions. After about 8 months in case of winter barley and after about 3 months in case of summer barley the infested plants were counted and the activity was calculated by the formula [formula]

| Compound | % activity |
| --- | --- |
| CCCNC(=O)c1nnc(S(C)(=O)=O)s1 [5-methylsulfonyl-1,3,4-thiadiazole-2-carboxylic acid-propylamide] | 100% |

System: Botrytis cinerea
Assay: Prophylactic leaf treatment of tomato plants against Botrytis cinerea
Type: in vivo
Settings: concentration of 0.025 of the active agent (unit not given)

| Compound | % activity |
| --- | --- |
| CCCNC(=O)c1nnc(S(C)(=O)=O)s1 [5-methylsulfonyl-1,3,4-thiadiazole-2-carboxylic acid-propylamide] | 76% |

System: Piricularia oryzae
Assay: not given
Type: in vivo
Settings: concentration of active agent 0.02 (percentages); 5 days

| Compound | % activity |
| --- | --- |
| CS(=O)(=O)c1nnc(C(=O)NCC2CCCCC2)s1 [5-methylsulfonyl-1,3,4-thiadiazole-2-carboxylic acid cyclohexylmethylamide] | 60% |

Same assay, conditions: concentration of active agent 0.1 (percentages); 5 days

| Compound | % activity |
| --- | --- |
| CS(=O)(=O)c1nnc(C(=O)NCC2CCCCC2)s1 [5-methylsulfonyl-1,3,4-thiadiazole-2-carboxylic acid cyclohexylmethylamide] | 80% |
| CCCNC(=O)c1nnc(S(C)(=O)=O)s1 [5-methylsulfonyl-1,3,4-thiadiazole-2-carboxylic acid-propylamide] | 90% |

System: Botrytis cinerea
Assay: Inhibition of fungus in a nutrient solution: Botrytis cinerea;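 further: 0 means no fungus growth and higher grades mean more surface covered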
Type: cell-based
Settings: 0.002%, 6 days at 21-23° C.

| Compound | fungus development on the surface of the nutrient solution (0-5) |
| --- | --- |
| O=C1C2CC=CCC2C(=O)N1SC(Cl)(Cl)Cl (centres unmarked) [N-trichloromethylmercapto-tetrahydro-phthalimide, reference compound] | 4 (30 to 60% of the surface covered by the fungus turf) |

Same assay, conditions: 0.004%, 6 days at 21-23° C.

| Compound | fungus development on the surface of the nutrient solution (0-5) |
| --- | --- |
| O=C1C2CC=CCC2C(=O)N1SC(Cl)(Cl)Cl (centres unmarked) [N-trichloromethylmercapto-tetrahydro-phthalimide, reference compound] | 4 (30 to 60% of the surface covered by the fungus turf) |

System: Penicillium digitatum
Assay: Inhibition of fungus in a nutrient solution: Penicillium digitatum;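 further: 0 means no fungus growth and higher grades mean more surface covered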
Type: cell-based
Settings: 0.002%, 6 days at 21-23° C.

| Compound | fungus development on the surface of the nutrient solution (0-5) |
| --- | --- |
| O=C1C2CC=CCC2C(=O)N1SC(Cl)(Cl)Cl (centres unmarked) [N-trichloromethylmercapto-tetrahydro-phthalimide, reference compound] | 4 (30 to 60% of the surface covered by the fungus turf) |

Same assay, conditions: 0.004%, 6 days at 21-23° C.

| Compound | fungus development on the surface of the nutrient solution (0-5) |
| --- | --- |
| O=C1C2CC=CCC2C(=O)N1SC(Cl)(Cl)Cl (centres unmarked) [N-trichloromethylmercapto-tetrahydro-phthalimide, reference compound] | 4 (30 to 60% of the surface covered by the fungus turf) |

System: Venturia inaequalis
Assay: Prophylactic leaf treatment of apples in open field test against Venturia inaequalis
Type: in vivo
Settings: concentration of active agent 0.005 (in gram); 3 weeks

| Compound | % activity |
| --- | --- |
| CCCNC(=O)c1nnc(S(C)(=O)=O)s1 [5-methylsulfonyl-1,3,4-thiadiazole-2-carboxylic acid-propylamide] | 98% |

Same assay, conditions: concentration of active agent 0.025 (in gram); 3 weeks

| Compound | % activity |
| --- | --- |
| CCCNC(=O)c1nnc(S(C)(=O)=O)s1 [5-methylsulfonyl-1,3,4-thiadiazole-2-carboxylic acid-propylamide] | 99.7% |

System: Helminthosporium gram
Assay: not given
Settings: 50 g active agent per 100 kg; about 5 weeks

| Compound | % activity |
| --- | --- |
| CCCNC(=O)c1nnc(S(C)(=O)=O)s1 [5-methylsulfonyl-1,3,4-thiadiazole-2-carboxylic acid-propylamide] | 93% |

System: Plasmopara viticola
Assay: Prophylactic leaf treatment of grapevines in the hothouse against Plasmopara viticola
Type: in vivo
Settings: concentration of active agent 0.001 (unit not given)
How it was run: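 Grapevines (5–8 leaves) sprayed to runoff with compound as 20% spray powder, then after drying inoculated on leaf undersides with sporangial suspension (~20,000/ml). Incubated at 22–24 °C, saturated humidity, 3–4 days normal humidity (30–70%), then one day saturated; activity from mean % infested leaf area per treatment.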

| Compound | % activity |
| --- | --- |
| CS(=O)(=O)c1nnc(C(=O)NCC2CCCCC2)s1 [5-methylsulfonyl-1,3,4-thiadiazole-2-carboxylic acid cyclohexylmethylamide] | 76% |

Same assay, conditions: concentration of active agent 0.005 (unit not given)

| Compound | % activity |
| --- | --- |
| CS(=O)(=O)c1nnc(C(=O)NCC2CCCCC2)s1 [5-methylsulfonyl-1,3,4-thiadiazole-2-carboxylic acid cyclohexylmethylamide] | 88% |
| CCCNC(=O)c1nnc(S(C)(=O)=O)s1 [5-methylsulfonyl-1,3,4-thiadiazole-2-carboxylic acid-propylamide] | 82% |

Same assay, conditions: concentration of active agent 0.025 (unit not given)

| Compound | % activity |
| --- | --- |
| CS(=O)(=O)c1nnc(C(=O)NCC2CCCCC2)s1 [5-methylsulfonyl-1,3,4-thiadiazole-2-carboxylic acid cyclohexylmethylamide] | 97% |
| CCCNC(=O)c1nnc(S(C)(=O)=O)s1 [5-methylsulfonyl-1,3,4-thiadiazole-2-carboxylic acid-propylamide] | 95% |
